Measurements as given in the supplement of paper PMC10307832.

Assays:
Test in all cases: relative viability (nuclei count vs DMSO), 5 days (fraction); higher = more cells survive
[1] = system: CAL-12T
Method in brief: (§1)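 Medians of duplicate plates are given as relative viability. That measure is the nuclei count in treated wells divided by the count in vehicle wells. Counts were taken on 4× images of lung cancer cell lines in 1536-well plates, 5 days after pin-tool dosing the day after seeding with one drug alone or a fixed anchor-drug dose plus five library-drug doses (not always all listed) in √10 steps.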

[2] = system: BEN
Method in brief: as §1

[3] = system: NCI-H520
Method in brief: as §1

[4] = system: NCI-H2023
Method in brief: as §1

[5] = system: NCI-H1650
Method in brief: as §1

[6] = system: NCI-H1944
Method in brief: as §1

[7] = system: NCI-H1915
Method in brief: as §1

[8] = system: NCI-H727
Method in brief: as §1

[9] = system: 201T
Method in brief: as §1

[10] = system: NCI-H661
Method in brief: as §1

[11] = system: PC-3 [JPC-3]
Method in brief: as §1

[12] = system: A-427
Method in brief: as §1

[13] = system: NCI-H460
Method in brief: as §1

[14] = system: NCI-H441
Method in brief: as §1

[15] = system: LCLC-97TM1
Method in brief: as §1

[16] = system: LC-2-ad
Method in brief: as §1

[17] = system: ABC-1
Method in brief: as §1

[18] = system: NCI-H596
Method in brief: as §1

[19] = system: H3255
Method in brief: as §1

[20] = system: NCI-H650
Method in brief: as §1

[21] = system: NCI-H1651
Method in brief: as §1

[22] = system: NCI-H1792
Method in brief: as §1

[23] = system: NCI-H2087
Method in brief: as §1

`CC1(C)CCC(c2ccc(Cl)cc2)=C(CN2CCN(c3ccc(C(=O)NS(=O)(=O)c4ccc(N[C@H](CCN5CCOCC5)CSc5ccccc5)c(S(=O)(=O)C(F)(F)F)c4)cc3)CC2)C1` [Navitoclax] + N=C(N)NC(=N)NCCc1ccccc1 [Phenformin] (partner 250 µM) was tested, and the relative viability ([1]; first compound 0.005 µM) was 0.527, the relative viability ([1]; first compound 0.01581 µM) was 0.655 and the relative viability ([1]; first compound 0.05 µM) was 0.6. For the same compound, the relative viability ([1]; first compound 0.1581 µM) was 0.503, the relative viability ([1]; first compound 0.5 µM) was 0.582 and the relative viability ([2]; first compound 0.005 µM) was 0.246. The relative viability ([2]; first compound 0.01581 µM) was 0.265, the relative viability ([2]; first compound 0.05 µM) was 0.248 and the relative viability ([2]; first compound 0.1581 µM) was 0.294. It also gave a relative viability ([2]; first compound 0.5 µM) of 0.232, a relative viability ([3]; first compound 0.005 µM) of 0.576 and a relative viability ([3]; first compound 0.01581 µM) of 0.758. It also gave a relative viability ([3]; first compound 0.05 µM) of 0.571, a relative viability ([3]; first compound 0.1581 µM) of 0.507 and a relative viability ([3]; first compound 0.5 µM) of 0.616. For the same compound, the relative viability ([4]; first compound 0.005 µM) was 0.432, the relative viability ([4]; first compound 0.01581 µM) was 0.447 and the relative viability ([4]; first compound 0.05 µM) was 0.382. For the same compound, the relative viability ([4]; first compound 0.1581 µM) was 0.425, the relative viability ([4]; first compound 0.5 µM) was 0.428 and the relative viability ([5]; first compound 0.005 µM) was 0.358. For the same compound, the relative viability ([5]; first compound 0.01581 µM) was 0.606, the relative viability ([5]; first compound 0.05 µM) was 0.404 and the relative viability ([5]; first compound 0.1581 µM) was 0.36. For the same compound, the relative viability ([5]; first compound 0.5 µM) was 0.313, the relative viability ([6]; first compound 0.005 µM) was 0.183 and the relative viability ([6]; first compound 0.01581 µM) was 0.191. For the same compound, the relative viability ([6]; first compound 0.05 µM) was 0.182, the relative viability ([6]; first compound 0.1581 µM) was 0.211 and the relative viability ([6]; first compound 0.5 µM) was 0.146. The relative viability ([7]; first compound 0.005 µM) was 0.382, the relative viability ([7]; first compound 0.01581 µM) was 0.431 and the relative viability ([7]; first compound 0.05 µM) was 0.441. It also gave a relative viability ([7]; first compound 0.1581 µM) of 0.42, a relative viability ([7]; first compound 0.5 µM) of 0.388 and a relative viability ([8]; first compound 0.01581 µM) of 0.804. The relative viability ([8]; first compound 0.1581 µM) was 0.479, the relative viability ([8]; first compound 0.5 µM) was 0.394 and the relative viability ([9]; first compound 0.005 µM) was 0.447. It also gave a relative viability ([9]; first compound 0.01581 µM) of 0.458, a relative viability ([9]; first compound 0.05 µM) of 0.456 and a relative viability ([9]; first compound 0.1581 µM) of 0.438. The relative viability ([9]; first compound 0.5 µM) was 0.492, the relative viability ([10]; first compound 0.005 µM) was 0.253 and the relative viability ([10]; first compound 0.01581 µM) was 0.298. For the same compound, the relative viability ([10]; first compound 0.05 µM) was 0.262, the relative viability ([10]; first compound 0.1581 µM) was 0.257 and the relative viability ([10]; first compound 0.5 µM) was 0.258. The relative viability ([11]; first compound 0.005 µM) was 0.466, the relative viability ([11]; first compound 0.01581 µM) was 0.48 and the relative viability ([11]; first compound 0.05 µM) was 0.516. It also gave a relative viability ([11]; first compound 0.1581 µM) of 0.453, a relative viability ([11]; first compound 0.5 µM) of 0.41 and a relative viability ([12]; first compound 0.005 µM) of 0.342. The relative viability ([12]; first compound 0.01581 µM) was 0.359, the relative viability ([12]; first compound 0.05 µM) was 0.179 and the relative viability ([12]; first compound 0.1581 µM) was 0.287. The relative viability ([12]; first compound 0.5 µM) was 0.273, the relative viability ([13]; first compound 0.005 µM) was 0.509 and the relative viability ([13]; first compound 0.01581 µM) was 0.512. For the same compound, the relative viability ([13]; first compound 0.05 µM) was 0.529, the relative viability ([13]; first compound 0.1581 µM) was 0.522 and the relative viability ([13]; first compound 0.5 µM) was 0.515. It also gave a relative viability ([14]; first compound 0.005 µM) of 0.919, a relative viability ([14]; first compound 0.01581 µM) of 1.14 and a relative viability ([14]; first compound 0.05 µM) of 0.846. For the same compound, the relative viability ([14]; first compound 0.1581 µM) was 0.851, the relative viability ([14]; first compound 0.5 µM) was 0.818 and the relative viability ([15]; first compound 0.005 µM) was 0.447. It also gave a relative viability ([15]; first compound 0.01581 µM) of 0.504, a relative viability ([15]; first compound 0.05 µM) of 0.403 and a relative viability ([15]; first compound 0.1581 µM) of 0.477. The relative viability ([15]; first compound 0.5 µM) was 0.507, the relative viability ([16]; first compound 0.005 µM) was 0.577 and the relative viability ([16]; first compound 0.01581 µM) was 0.653. It also gave a relative viability ([16]; first compound 0.05 µM) of 0.58, a relative viability ([16]; first compound 0.1581 µM) of 0.505 and a relative viability ([16]; first compound 0.5 µM) of 0.572. For the same compound, the relative viability ([17]; first compound 0.005 µM) was 0.245, the relative viability ([17]; first compound 0.01581 µM) was 0.292 and the relative viability ([17]; first compound 0.05 µM) was 0.277. It also gave a relative viability ([17]; first compound 0.1581 µM) of 0.257, a relative viability ([17]; first compound 0.5 µM) of 0.215 and a relative viability ([18]; first compound 0.005 µM) of 0.742. It also gave a relative viability ([18]; first compound 0.01581 µM) of 0.71, a relative viability ([18]; first compound 0.1581 µM) of 0.67 and a relative viability ([18]; first compound 0.5 µM) of 0.815. For the same compound, the relative viability ([19]; first compound 0.005 µM) was 0.338, the relative viability ([19]; first compound 0.01581 µM) was 0.399 and the relative viability ([19]; first compound 0.05 µM) was 0.376. The relative viability ([19]; first compound 0.1581 µM) was 0.39, the relative viability ([19]; first compound 0.5 µM) was 0.339 and the relative viability ([20]; first compound 0.005 µM) was 0.447. It also gave a relative viability ([20]; first compound 0.01581 µM) of 0.473, a relative viability ([20]; first compound 0.05 µM) of 0.456 and a relative viability ([20]; first compound 0.1581 µM) of 0.456. For the same compound, the relative viability ([20]; first compound 0.5 µM) was 0.504, the relative viability ([21]; first compound 0.005 µM) was 0.3 and the relative viability ([21]; first compound 0.01581 µM) was 0.3. For the same compound, the relative viability ([21]; first compound 0.05 µM) was 0.298, the relative viability ([21]; first compound 0.1581 µM) was 0.353 and the relative viability ([21]; first compound 0.5 µM) was 0.295. For the same compound, the relative viability ([22]; first compound 0.005 µM) was 0.258, the relative viability ([22]; first compound 0.01581 µM) was 0.179 and the relative viability ([22]; first compound 0.5 µM) was 0.112. The relative viability ([23]; first compound 0.005 µM) was 0.475, the relative viability ([23]; first compound 0.01581 µM) was 0.452 and the relative viability ([23]; first compound 0.1581 µM) was 0.407. The relative viability ([23]; first compound 0.5 µM) was 0.428.
